Experimental data: patent US20240384268A1, “Oligonucleotides” (Hudson Institute of Medical Research, priority 2021, published 2024)
In the oligonucleotide strings, read from the 5' end, every base follows the letter of its sugar. An asterisk marks phosphorothioate; unmarked linkages are phosphodiester. Other units and linkages are bracketed, terminal groups are in braces. A string of capitals states the bases alone. d = 2'-deoxy (DNA); m = 2'-O-methyl

Molecular target: T1, TLR3 (Homo sapiens, UniProt O15455)
T1 sequence (O15455 24-904): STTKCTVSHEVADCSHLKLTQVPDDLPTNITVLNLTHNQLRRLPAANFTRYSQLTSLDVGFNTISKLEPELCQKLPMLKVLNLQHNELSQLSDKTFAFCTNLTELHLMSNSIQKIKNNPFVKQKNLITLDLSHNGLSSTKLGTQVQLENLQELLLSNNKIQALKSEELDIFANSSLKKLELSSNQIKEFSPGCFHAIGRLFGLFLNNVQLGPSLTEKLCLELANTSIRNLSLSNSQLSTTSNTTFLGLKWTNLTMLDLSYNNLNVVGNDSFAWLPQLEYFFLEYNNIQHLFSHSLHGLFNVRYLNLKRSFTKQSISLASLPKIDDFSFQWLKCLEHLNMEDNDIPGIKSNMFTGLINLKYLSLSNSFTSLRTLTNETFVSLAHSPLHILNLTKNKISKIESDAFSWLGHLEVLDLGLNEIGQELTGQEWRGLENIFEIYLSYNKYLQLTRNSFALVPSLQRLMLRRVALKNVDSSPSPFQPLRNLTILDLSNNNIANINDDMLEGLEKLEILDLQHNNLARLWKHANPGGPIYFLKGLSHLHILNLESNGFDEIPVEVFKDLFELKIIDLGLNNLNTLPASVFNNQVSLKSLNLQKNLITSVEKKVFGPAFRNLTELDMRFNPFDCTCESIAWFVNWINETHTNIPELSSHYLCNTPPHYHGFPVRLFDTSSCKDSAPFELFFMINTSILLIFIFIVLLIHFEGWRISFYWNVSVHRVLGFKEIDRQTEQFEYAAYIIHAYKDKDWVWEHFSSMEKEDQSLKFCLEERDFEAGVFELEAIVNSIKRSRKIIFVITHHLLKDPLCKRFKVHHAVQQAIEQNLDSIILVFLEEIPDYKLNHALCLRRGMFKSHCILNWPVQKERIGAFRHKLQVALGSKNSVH
Assay: HEK-TLR3 NF-κB-luciferase reporter, poly(I:C) stimulation
Type: cell-based
Design: host or cells: HEK-Blue hTLR3 (HEK293)
Details: for IC50: 30-50 min before 0.5 μg/ml pIC overnight, read-out: IC50 (polyI:C sensing by TLR3)

[1] = 3mer 2'OMe ASO at 2 uM, value relative to Ligand only = 1.000, NT = 0.000
[2] = 3-mers DNA PS 45 min, then 500 ng/ml polyI:C overnight, NF-κB-luciferase normalised to polyI:C only (Ligand 1.000, NT 0.000)

For AAU (antisense mA*mA*mU), the “TLR3 2uM” value [1] was 0.888.

In the case of ACU (antisense mA*mC*mU), the “TLR3 2uM” value [1] is reported as 1.062.

For AGU (antisense mA*mG*mU), the “TLR3 2uM” value [1] was 0.829.

AUA (antisense mA*mU*mA) was tested, and the “TLR3 2uM” value [1] was 0.570.

AUG (mA*mU*mG) was tested, and the “TLR3 2uM” value [1] was 0.859.

For AUU (mA*mU*mU), the “TLR3 2uM” value [1] was 0.809.

CAU (mC*mA*mU) was tested, and the “TLR3 2uM” value [1] was 0.866.

In the case of CCU (mC*mC*mU), the “TLR3 2uM” value [1] is reported as 0.870.

For CGU (mC*mG*mU), the “TLR3 2uM” value [1] was 0.833.

CUA (mC*mU*mA) was tested, and the “TLR3 2uM” value [1] was 0.851.

In the case of CUC (mC*mU*mC), the “TLR3 2uM” value [1] is reported as 0.874.

For CUG (mC*mU*mG), the “TLR3 2uM” value [1] was 0.870.

For GCU (mG*mC*mU), the “TLR3 2uM” value [1] was 0.808.

With GGU (mG*mG*mU) the “TLR3 2uM” value [1] was 0.829.

For “T*T*A* G*G*G* T*T*A* G*G*G* T*T*A* G*G*G* T*T*A* G*G*G [A151, reference compound]”, the “inhibition of polyI:C sensing by TLR3 at 500 nM (in words)” value (500 nM ASOs/ODNs, poly(I:C) 1 μg/ml) was “only partially reduced polyL:C-dependent TLR3 activation” and the IC50 was over 750 nM.

In the case of UAA (mU*mA*mA), the “TLR3 2uM” value [1] is reported as 0.790.

UAC (mU*mA*mC) was tested, and the “TLR3 2uM” value [1] was 0.813.

For UAG (mU*mA*mG), the “TLR3 2uM” value [1] was 0.940.

With UAU (mU*mA*mU) the “TLR3 2uM” value [1] was 0.915.

For UCC (mU*mC*mC), the “TLR3 2uM” value [1] was 0.761.

UCU (mU*mC*mU) was tested, and the “TLR3 2uM” value [1] was 0.804.

UGC (mU*mG*mC) was tested, and the “TLR3 2uM” value [1] was 0.903.

UGU (mU*mG*mU) was tested, and the “TLR3 2uM” value [1] was 0.967.

For UUA (mU*mU*mA), the “TLR3 2uM” value [1] was 1.081.

In the case of UUC (mU*mU*mC), the “TLR3 2uM” value [1] is reported as 1.023.

For “UUG (listed as RNA, chemistry not fully specified)”, the “TLR3 2uM” value [1] was 1.030.

UUU (mU*mU*mU) was tested, and the “TLR3 2uM” value [1] was 0.970.

With “dA*dA*dA (DNA AAA; listed as DNA, chemistry not fully specified)” the “TLR3 2uM” value [2] was 1.065 and the “TLR3 2uM” value [1] was 1.026.

“dA*dA*dC (DNA AAC; listed as DNA, chemistry not fully specified)” was tested, and the “TLR3 2uM” value [2] was 0.861 and the “TLR3 2uM” value [1] was 0.901.

In the case of “dA*dA*dG (DNA AAG; listed as DNA, chemistry not fully specified)”, the “TLR3 2uM” value [2] is reported as 0.825 and the “TLR3 2uM” value [1] is reported as 0.616.

For “dA*dC*dA (DNA ACA; listed as RNA, chemistry not fully specified)”, the “TLR3 2uM” value [2] was 0.832 and the “TLR3 2uM” value [1] was 1.053.

In the case of “dA*dG*dA (DNA AGA; listed as DNA, chemistry not fully specified)”, the “TLR3 2uM” value [2] is reported as 0.849 and the “TLR3 2uM” value [1] is reported as 0.829.

“dA*dG*dC (DNA AGC; listed as DNA, chemistry not fully specified)” was tested, and the “TLR3 2uM” value [2] was 0.854 and the “TLR3 2uM” value [1] was 1.019.

In the case of “dC*dA*dA (CAA; listed as DNA, chemistry not fully specified)”, the “TLR3 2uM” value [2] is reported as 0.909 and the “TLR3 2uM” value [1] is reported as 0.771.

For “dC*dA*dC (CAC; listed as RNA, chemistry not fully specified)”, the “TLR3 2uM” value [2] was 0.796 and the “TLR3 2uM” value [1] was 0.841.

With “dC*dC*dA (CCA; listed as DNA, chemistry not fully specified)” the “TLR3 2uM” value [2] was 0.763 and the “TLR3 2uM” value [1] was 0.917.

“dC*dC*dC (CCC; listed as DNA, chemistry not fully specified)” was tested, and the “TLR3 2uM” value [2] was 0.811 and the “TLR3 2uM” value [1] was 0.933.

“dC*dC*dG (CCG; listed as DNA, chemistry not fully specified)” was tested, and the “TLR3 2uM” value [2] was 0.867 and the “TLR3 2uM” value [1] was 0.770.

With “dC*dG*dA (CGA; listed as DNA, chemistry not fully specified)” the “TLR3 2uM” value [2] was 0.823 and the “TLR3 2uM” value [1] was 0.780.

dG*dC*dC [GCC] was tested, and the “TLR3 2uM” value [2] was 0.895 and the “TLR3 2uM” value [1] was 0.884.

dG*dC*dG [GCG] was tested, and the “TLR3 2uM” value [2] was 0.867 and the “TLR3 2uM” value [1] was 0.830.

For “mAmUmC (mA*mU*mC) [AUC, 3-mer 2′OMe PS oligo]”, the “TLR3 2uM” value [1] was 0.768.

For mCmUmU (antisense mC*mU*mU) [660-3], the “TLR3 2uM” value [1] was 0.846.

In the case of “mG*mC*mG*mG*mU*A*T*C*C*A*T*G*T*C*C*mC*mA*mG*mG*mC (mG*mC*mG*mG*mU*dA*dT*dC*dC*dA*dT*dG*dT*dC*dC*mC*mA*mG*mG*mC; antisense) [C2-Mut1]”, the IC50 is reported as 62 nM.

For “mGmAmU (mG*mA*mU) [GAU, 3-mer 2′OMe PS oligo]”, the “TLR3 2uM” value [1] was 0.771.

For “mGmUmA (GUA; all 2'-O-methyl, backbone not given here; further chemistry not fully specified) [shortMut1-3b]”, the “TLR3 2uM” value [1] was 0.839.

“mGmUmC (mG*mU*mC) [GUC, 3-mer 2′OMe PS oligo]” was tested, and the “TLR3 2uM” value [1] was 0.752.

With “mGmUmG (mG*mU*mG) [GUG, 3-mer 2′OMe PS oligo]” the “TLR3 2uM” value [1] was 0.786.

“mGmUmU (mG*mU*mU) [GUU, 3-mer 2′OMe PS oligo]” was tested, and the “TLR3 2uM” value [1] was 0.825.

In the case of “mUmCmA (mU*mC*mA) [UCA, 3-mer 2′OMe PS oligo]”, the “TLR3 2uM” value [1] is reported as 0.765.

With mUmCmG (antisense mU*mC*mG) [660-3b] the “TLR3 2uM” value [1] was 0.850.

With “mUmGmA (mU*mG*mA) [UGA, 3-mer 2′OMe PS oligo]” the “TLR3 2uM” value [1] was 0.806.

With “mUmGmG (mU*mG*mG) [UGG, 3-mer 2′OMe PS oligo]” the “TLR3 2uM” value [1] was 0.764.
